Data taken from US10160766B1, “Benzopyranyl tetracycle compound and pharmaceutical composition having excellent anti-inflammatory effect comprising the same” (Spark Biopharma, Inc., priority 2017, dated 2018).
≈ marks a conversion by molar mass, not a printed value. Entries after “also recorded” stand apart in the source; their conditions may differ.

Legend:
[1] = Liver microsomal stability, mouse; assay type: in vitro ADME; conditions: for microsomal stability Mouse(%): mouse liver microsomal
Source text: (§1) The aqueous solubility, liver microsomal stabilities and PK profiles was measure for Compounds 1d, 2j, and 2l in the in vivo CLP-induced mouse models.

[2] = tested on: NF-κB p65; assay: NF-κB p65 immunofluorescence (migration to the nucleus); assay type: cell-based; conditions: Raw264.7 cells, 500 ng/mL LPS
Source text: It is concluded that Compounds 1d, 2j, and 2l controlled and regulated the inflammatory signaling pathways in activated macrophages.

[3] = PK profiles in mouse; assay type: in vivo; conditions: ip injection
Source text: as §1

[4] = tested on: TNF-α secretion in Raw264.7 cell; assay: ELISA of secreted TNF-α; assay type: cell-based; conditions: Mus musculus, LPS 100 ng/mL, compounds 10 μM, read-out: TNF-α Inhibition Rate (%)
Protocol: Thus, in order to additionally confirm the inflammation inhibitory effects of Compounds 2f to 2l, the inhibition rate of TNF-α secretion was quantitatively measured by ELISA.
Cells were treated with each Compound 1d, or 2f to 2l, and LPS for 24 hours, followed by ELISA for TNF-α present in the culture solution.
In order to measure the amount of secreted TNF-α, Raw264.7 cell was seeded in transparent 96-well plate and maintained for 1 day. Media was aspirated after 1 day and replaced to serum-free DMEM with 1% (v/v) antibiotic-antimycotic solution. LPS and compounds were treated in a final concentration of 100 ng/mL and 10 μM.
Standard curve was plotted by the dose-dependent treatment of the control TNF-α protein provided with the ELISA kit. Blank value was measured by adding solutions without TNF-α substrate.
The TNF-α secretion inhibition rate of Compounds 1d, and 2f to 2l was confirmed, when compared with control groups.

[5] = tested on: HMGB1; assay: Immunofluorescence of cellular localization of HMGB1 upon LPS treatment; assay type: cell-based; conditions: Raw264.7 cell, 20 μM compounds 1 hour prior to 500 ng/mL LPS for 2 hours
Protocol: From the results shown in Table 6, Compounds 2j (68%) and 2l (60%) had better TNF-α release inhibitory effect than that of Compound 1d (43%). Therefore, it was analyzed with the immunofluorescence whether Compounds 2j and 2l may inhibit the cellular localization of HMGB1 upon LPS treatment.
Raw264.7 cell was seeded in “Nunc Lab-Tek II” chambered coverglass and maintained for 1 day.
Then, 20 μM of compounds were treated 1 hour prior to 500 ng/mL LPS treatment for 2 hours.
After aspirating the media and washing with PBS, 200 μl of 4% paraformaldehyde solution was treated and incubated at room temperature for 20 minutes. Then, 4% paraformaldehyde solution was aspirated and the sample was washed with PBS three times.
For the permeabilization to enable antibody binding, 200 μL of methanol was treated and incubated at −20° C. for 20 minutes. Methanol was then removed and the sample was washed with PBS three times.
Sample was blocked with 2% BSA in PBS solution at room temperature for 1 hour. Then, 2% BSA in PBS solution was removed and primary antibody containing 1% BSA in PBS was treated at 4° C. overnight. Antibody concentration was optimized according to the manufacturer's protocol. Primary antibody solution was removed and the sample was washed with PBS three times. Secondary antibody containing 1% BSA in PBS solution was treated at room temperature for 1 hour.
The secondary antibody used was goat anti rabbit TRITC labeled antibody from Abcam.
After 1 hour, antibody solution was aspirated and the sample was washed with PBS three times. For nucleus staining, Hoechst 33342 was diluted in PBS, and each well was treated and incubated at room temperature for 1 hour. Hoechst 33342 was then removed and the chamber was filled with PBS, continued for imaging using DeltaVision microscope.

[6] = tested on: CLP-induced mice; assay: Survival rate in CLP-induced mouse model; conditions: for survival rate / survival rate, in words: CLP mice; for survival rate: intraperitoneally, daily dose of 10 mg/kg for 21 days, start 1 hour before induction; for survival rate, in words: 10 mg/kg ip daily for 21 days, compared with vehicle and 1d groups
Source text: Briefly, the CLP mouse model is established by performing a surgical procedure to the cecum, which is the organ where the resident enteric microbiome exists. Ligating the cecum and puncturing the end with a needle causes endotoxemia by inducing polymicrobial contamination in the abdominal cavity toward the circulatory system.

[7] = tested on: IL-6; assay: IL-6 level in CLP-induced mice (ELISA); conditions: CLP mouse model, daily dose of 10 mg/kg for 9 days starting 1 hour before CLP induction
Protocol: After 4 hours, media were transferred to new transparent 96-well plate and diluted with 1% BSA in PBS solution. ELISA assay was performed following the manufacturer's protocol.
ELISA plates (Costar, Cambridge, Mass.) were coated overnight with anti-IL-6 monoclonal antibody (eBioscience, San Diego, Calif.) at 4° C. Wells were blocked with PBS containing 1% bovine serum albumin (Sigma-Aldrich, St. Louis, Mo.) for 1 hour at room temperature (RT) and incubated with serum overnight at 4° C.
After washing, plates were incubated with biotinylated anti-IL-6 antibody (eBioscience) for 1 hour at RT. Streptavidin-conjugated horseradish peroxidase (eBioscience) is attached for 1 hour at RT. Then, Color was developed using TMB solution (eBioscience),
Absorbance was read at 450 nm with a Multiskan Ascent (Labsystems, Kennett Square, Pa.). All experiments were independently performed at least three times.

[8] = tested on: IL-6 secreted from Raw 264.7 cells; assay: Western blot analysis of IL-6 secretion; assay type: cell-based; conditions: pretreatment with compounds
Protocol: From the results shown in Table 6, Compounds 2j (68%) and 2l (60%) had better TNF-α release inhibitory effect than that of Compound 1d (43%). Therefore, the inhibitory effect of IL-6 release secretion was analyzed with the Western blot analysis in order to additionally confirm the inflammation inhibitory effect of Compounds 2j and 2l.
(§2) Western Blot Analysis Protein sampling was done in 4° C. Cells were harvested in RIPA lysis buffer containing protease inhibitor cocktail and phosphatase inhibitor.
(§3) After centrifugation at 15000 rpm for 20 minutes, supernatant was transferred to new 1.5 mL tube. Protein concentration was normalized with a Micro BCA protein assay kit. The protein samples were analyzed with the Western blot procedure. Protein was transferred into PVDF membrane after SDS-PAGE. Membrane was blocked after transfer step, with 2% BSA in TBST for 1 hour in room temperature.
(§4) Primary antibodies were treated overnight at 4° C. or 1 hour in room temperature, followed by washing with TBST.
(§5) HRP-conjugated secondary antibodies were treated for 1 hour in room temperature. Antibodies were diluted in 1% BSA in TBST solution, with the concentration indicated in antibody manufacturer's protocol. After washing with TBST, the membrane was developed by Amersham ECL prime solution. Chemiluminescent signal was measured by ChemiDoc MP imaging system, and relative quantification were followed using ImageLab 4.0 software. The quantification result was processed with GraphPad Prism 5.0 software.

[9] = tested on: Raw 264.7 cell; assay: WST (water-soluble tetrazolium) analysis, relative cell viability; assay type: cell-based; conditions: 100 ng/mL LPS and compounds 24 hours
Protocol: Relative cell viability of Compound 2a to 2o prepared in Examples 2 was measured by WST (water-soluble tetrazolium) analysis.
Raw 264.7 cell was seeded in transparent 96-well plate and maintained for 1 day.
Media was aspirated, and each well was washed with serum free DMEM for twice. Each well was refilled with serum-free DMEM. Then, 100 ng/mL LPS and compounds were treated afterward and cultured for 24 hours. After the incubation, the supernatant culture media was transferred to new 96-well plate.
Immediately after transferring media, cell-seeded wells were refilled with 100 μL of 10% FBS and 1% antibiotic-antimycotic containing DMEM. Then, 10 μL of Ez-cytox WST assay reagent was used to treat each well, following the manufacturer's protocol.
After incubating for 20 min in a 5% CO2 incubator at 37° C. with humidified atmosphere, absorbance was read at 450 nm.
Blank values were obtained from the well only treated with 10% FBS and 1% antibiotic-antimycotic containing DMEM.

[10] = tested on: MAPK including p38, JNK, and ERK; assay: Western blot of MAPK phosphorylation; assay type: cell-based; conditions: Raw264.7 cells
Protocol: as §2, §3, §4, §5

[11] = Liver microsomal stability, human; assay type: in vitro ADME; conditions: for microsomal stability Human(%): human liver microsomal
Source text: as §1

[12] = tested on: NO release in Raw264.7 cells; assay: Griess assay, inhibition of nitric oxide release; assay type: cell-based; conditions: 100 ng/mL LPS and compounds 24 hours, compared with control group
Protocol: Thus, the Griess assay was used to measure nitric oxide secretion for inflammation inhibition in Raw264.7 cells.
Raw 264.7 macrophage cell was cultured in Dulbecco Modified Eagle Medium (DMEM) with 10% (v/v) fetal bovine serum (FBS) and 1% (v/v) antibiotic-anti mycotic solution.
Cell was maintained in a 100 mm cell culture dish under cell culture conditions (5% CO2 incubator at 37° C. with humidified atmosphere).
Griess assay reagent was generated prior to the assay with the following contents listed below: N-(1-naphthyl) ethylenediamine dihydrochloride, 0.1% (m/v); sulfanilamide, 1% (m/v); phosphoric acid (85%); 5% (v/v) in deionized water.
Raw 264.7 cell was seeded in transparent 96-well plate and maintained for 1 day. Media was aspirated, and each well was washed with serum free DMEM for twice. Each well was refilled with serum-free DMEM.
Then 100 ng/mL LPS and compounds were treated afterward and cultured for 24 hours. After the incubation, the supernatant culture media was transferred to new 96-well plate and mixed with 50 μL of Griess assay reagent.
Media-reagent mixture was incubated at room temperature for several minutes. Absorbance was read at 548 nm. Four wells each were used for the control experiment, LPS and DMSO (without any compounds) treated well, and DMSO-only treated well. Blank values were measured.
Blank values were measured by mixing 50 μL of Griess assay reagent with […] and 1% antibiotic-antimycotic containing DMEM.
As for the compounds in which the double bond of the tetrahydropyridazine ring in Compound 1d is moved or eliminated, the inhibition rate of NO release was measured in the same manner as in Test Example 2.
The inhibition rate of NO release for Compounds 2a to 2o prepared in Example 2 was tested in order to confirm the anti-inflammatory effect for the above compounds.

[13] = Aqueous solubility; assay type: physicochemical
Source text: as §1

Structure (SMILES)	microsomal stability Mouse(%) [1] [%]	migration of NF-κB to the nucleus [2]	PK data AUC [3] [µg·h/mL]	PK data Cmax [3] [µg/mL]	PK data T1/2 [3] [h]	PK data Tmax [3] [h]	inhibition at 10 µM [4] [%]	translocation of HMGB1 from the nucleus to the cytosol [5]	survival rate [6]	level of IL-6 secreted (western blot) [8]	Relative Cell Viability (%) [9] [%]	phosphorylation of MAPK including p38, JNK, and ERK [10]	microsomal stability Human(%) [11] [%]	NO Inhibition rate (%) [12] [%]	liver microsomal stability in mice, in words, compared with Compound 1d [1]	survival rate, in words [6]	liver microsomal stability in humans, in words, compared with Compound 1d [11]	solubility in aqueous media, in words, compared with Compound 1d [13]	also measured
CC1(C)Oc2cc(O)ccc2C2C1=CCn1c(=O)n(-c3ccccc3)c(=O)n12 (centres unmarked) [Compound 1d, inflachromene]	0.41 ± 0.10	inhibit the migration of NF-κB to the nucleus	327 ± 68.7	387 ± 122	3.87 ± 0.84	0.14 ± 0.10	43	inhibited the translocation of HMGB1 from the nucleus to the cytosol	about 45%	significantly reduced	105	clearly inhibited the phosphorylation of MAPK including p38, JNK, and ERK	0.82 ± 0.29	87	–	–	–	–	survival rate, in words, compared with vehicle-treated group ([6]; CLP-induced mice, ip 10 mg/kg for 9 days): significantly increased; IL-6 levels in surviving mice, compared with control group [7]: significantly reduced
CC(=O)c1ccc(-n2c(=O)n3n(c2=O)C2C(=CC3)C(C)(C)Oc3cc(O)ccc32)cc1 (centres unmarked) [Compound 2j]	2.46 ± 1.83	inhibit the migration of NF-κB to the nucleus	202 ± 28.1	100 ± 3.72	3.45 ± 1.00	0.25 ± 0.00	68	inhibited the translocation of HMGB1 from the nucleus to the cytosol	74%	superior inhibitory effect on IL-6 secretion; also recorded: improved the inhibition of IL-6 release	111	clearly inhibited the phosphorylation of MAPK including p38, JNK, and ERK	30.2 ± 2.81	93	improved liver microsomal stability	superior effects on survival rates	improved liver microsomal stability	improved solubility in aqueous media	solubility ([13]; aqueous media): 162 ± 2.12 µg/mL (≈ 387 µM)
CC1(C)Oc2cc(O)ccc2C2C1=CCn1c(=O)n(-c3ccc4c(c3)OCO4)c(=O)n12 (centres unmarked) [Compound 2k]	–	–	–	–	–	–	46	–	–	–	121	–	–	92	–	–	–	–	–
COc1cc(OC)cc(-n2c(=O)n3n(c2=O)C2C(=CC3)C(C)(C)Oc3cc(O)ccc32)c1 (centres unmarked) [Compound 2l]	20.2 ± 1.78	inhibit the migration of NF-κB to the nucleus	218 ± 51.8	282 ± 87.0	5.00 ± 0.98	0.14 ± 0.10	60	inhibited the translocation of HMGB1 from the nucleus to the cytosol	54%	superior inhibitory effect on IL-6 secretion; also recorded: improved the inhibition of IL-6 release	121	clearly inhibited the phosphorylation of MAPK including p38, JNK, and ERK	41.2 ± 4.33	94	improved liver microsomal stability	superior effects on survival rates	improved liver microsomal stability	improved solubility in aqueous media	–
